# In ChEMBL document CHEMBL1201862, “PubChem BioAssay data set” (2004):
#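 Results reflect a 48-hour exposure of cells in 96-well plates to compound at five concentrations. GI50 = concentration required for 50% inhibition of growth.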 Active and inactive are the calls of the source. Rule as the data show it: active = GI50 up to about 1.1 µM and inactive = higher.
# Key:
# Experiment in all cases: inhibition of tumour cell growth, NCI panel, 48 h
# 786-0 = test system: 786-0
# A498 = test system: A498
# A549 = test system: A549
# ACHN = test system: ACHN
# CAKI-1 = test system: CAKI-1
# CCRF-CEM = test system: CCRF-CEM
# COLO 205 = test system: COLO 205
# DLD-1 = test system: DLD-1
# DMS-114 = test system: DMS-114
# DMS-273 = test system: DMS-273
# EKVX = test system: EKVX
# HCC 2998 = test system: HCC 2998
# HCT-116 = test system: HCT-116
# HCT-15 = test system: HCT-15
# HL-60 = test system: HL-60
# HOP-18 = test system: HOP-18
# HOP-62 = test system: HOP-62
# HT-29 = test system: HT-29
# IGROV-1 = test system: IGROV-1
# K562 = test system: K562
# KM-20L2 = test system: KM-20L2
# KM12 = test system: KM12
# LXFL 529 = test system: LXFL 529
# M14 = test system: M14
# M19-MEL = test system: M19-MEL
# MOLT-4 = test system: MOLT-4
# Malme-3M = test system: Malme-3M
# NCI-H226 = test system: NCI-H226
# NCI-H23 = test system: NCI-H23
# NCI-H460 = test system: NCI-H460
# NCI-H522 = test system: NCI-H522
# OVCAR-4 = test system: OVCAR-4
# OVCAR-5 = test system: OVCAR-5
# OVCAR-8 = test system: OVCAR-8
# RPMI-8226 = test system: RPMI-8226
# RXF 393 = test system: RXF 393
# SF-268 = test system: SF-268
# SF-295 = test system: SF-295
# SF-539 = test system: SF-539
# SK-MEL-28 = test system: SK-MEL-28
# SK-MEL-2 = test system: SK-MEL-2
# SK-MEL-5 = test system: SK-MEL-5
# SK-OV-3 = test system: SK-OV-3
# SN12C = test system: SN12C
# SNB-19 = test system: SNB-19
# SNB-75 = test system: SNB-75
# SNB-78 = test system: SNB-78
# SR = test system: SR
# TK-10 = test system: TK-10
# U-251 = test system: U-251
# UACC-257 = test system: UACC-257
# UACC-62 = test system: UACC-62
# UO-31 = test system: UO-31
# XF498 = test system: XF498
# HOP-92 = test system: HOP-92
# LOX IMVI = test system: LOX IMVI
# OVCAR-3 = test system: OVCAR-3
# RXF 631 = test system: RXF 631
# SW-620 = test system: SW-620
structure (smiles),measurement,setting,value
COC1CC(O[C@H]2CC[C@@]3(C)C(=CCC4(O)C3CCC35C(=O)OC6(C)O[C@@]43CCC65)C2)OC(C)C1O (stereo not given in full),GI50,786-0,> 100 µM (inactive)
same,GI50,A498,> 100 µM (inactive)
same,GI50,A549,> 100 µM (inactive)
same,GI50,ACHN,> 100 µM (inactive)
same,GI50,CAKI-1,> 100 µM (inactive)
same,GI50,CCRF-CEM,> 100 µM (inactive)
same,GI50,COLO 205,> 100 µM (inactive)
same,GI50,DLD-1,> 100 µM (inactive)
same,GI50,DMS-114,> 100 µM (inactive)
same,GI50,DMS-273,> 100 µM (inactive)
same,GI50,EKVX,> 100 µM (inactive)
same,GI50,HCC 2998,> 100 µM (inactive)
same,GI50,HCT-116,> 100 µM (inactive)
same,GI50,HCT-15,> 100 µM
same,GI50,HL-60,> 100 µM (inactive)
same,GI50,HOP-18,> 100 µM (inactive)
same,GI50,HOP-62,> 100 µM (inactive)
same,GI50,HT-29,> 100 µM (inactive)
same,GI50,IGROV-1,> 100 µM (inactive)
same,GI50,K562,> 100 µM (inactive)
same,GI50,KM-20L2,> 100 µM (inactive)
same,GI50,KM12,> 100 µM (inactive)
same,GI50,LXFL 529,> 100 µM (inactive)
same,GI50,M14,> 100 µM (inactive)
same,GI50,M19-MEL,> 100 µM (inactive)
same,GI50,MOLT-4,> 100 µM (inactive)
same,GI50,Malme-3M,> 100 µM (inactive)
same,GI50,NCI-H226,> 100 µM (inactive)
same,GI50,NCI-H23,> 100 µM (inactive)
same,GI50,NCI-H460,> 100 µM (inactive)
same,GI50,NCI-H522,> 100 µM (inactive)
same,GI50,OVCAR-4,> 100 µM (inactive)
same,GI50,OVCAR-5,> 100 µM (inactive)
same,GI50,OVCAR-8,> 100 µM (inactive)
same,GI50,RPMI-8226,> 100 µM (inactive)
same,GI50,RXF 393,> 100 µM (inactive)
same,GI50,SF-268,> 100 µM (inactive)
same,GI50,SF-295,> 100 µM (inactive)
same,GI50,SF-539,> 100 µM (inactive)
same,GI50,SK-MEL-28,> 100 µM (inactive)
same,GI50,SK-MEL-2,> 100 µM (inactive)
same,GI50,SK-MEL-5,> 100 µM (inactive)
same,GI50,SK-OV-3,> 100 µM (inactive)
same,GI50,SN12C,> 100 µM (inactive)
same,GI50,SNB-19,> 100 µM (inactive)
same,GI50,SNB-75,> 100 µM (inactive)
same,GI50,SNB-78,> 100 µM (inactive)
same,GI50,SR,> 100 µM (inactive)
same,GI50,TK-10,> 100 µM (inactive)
same,GI50,U-251,> 100 µM (inactive)
same,GI50,UACC-257,> 100 µM (inactive)
same,GI50,UACC-62,> 100 µM (inactive)
same,GI50,UO-31,> 100 µM (inactive)
same,GI50,XF498,> 100 µM (inactive)
COc1ccc(C(O)c2cc(OC)c(OC)c(OC)c2)cc1 (stereo not given),GI50,786-0,46.8 µM (inactive)
same,GI50,A498,25.9 µM (inactive)
same,GI50,A549,17.1 µM (inactive)
same,GI50,ACHN,69.8 µM (inactive)
same,GI50,CAKI-1,37.1 µM (inactive)
same,GI50,CCRF-CEM,20 µM (inactive)
same,GI50,COLO 205,8.73 µM (inactive)
same,GI50,DLD-1,38.2 µM (inactive)
same,GI50,DMS-114,6.84 µM (inactive)
same,GI50,DMS-273,4.21 µM (inactive)
same,GI50,EKVX,43.9 µM (inactive)
same,GI50,HCT-116,24.2 µM (inactive)
same,GI50,HCT-15,8.77 µM
same,GI50,HL-60,6.11 µM (inactive)
same,GI50,HOP-18,39 µM (inactive)
same,GI50,HOP-62,26.3 µM (inactive)
same,GI50,HOP-92,27.3 µM (inactive)
same,GI50,HT-29,7.16 µM (inactive)
same,GI50,IGROV-1,18 µM (inactive)
same,GI50,K562,3.78 µM (inactive)
same,GI50,KM12,7.52 µM (inactive)
same,GI50,LOX IMVI,17.2 µM (inactive)
same,GI50,LXFL 529,40.9 µM (inactive)
same,GI50,M14,13 µM (inactive)
same,GI50,M19-MEL,21 µM (inactive)
same,GI50,MOLT-4,16.9 µM (inactive)
same,GI50,Malme-3M,23.7 µM (inactive)
same,GI50,NCI-H226,32.4 µM (inactive)
same,GI50,NCI-H460,31.6 µM (inactive)
same,GI50,NCI-H522,11.6 µM (inactive)
same,GI50,OVCAR-3,18.5 µM (inactive)
same,GI50,OVCAR-4,31.8 µM (inactive)
same,GI50,OVCAR-5,> 100 µM (inactive)
same,GI50,OVCAR-8,30.3 µM (inactive)
same,GI50,RPMI-8226,19.9 µM (inactive)
same,GI50,RXF 393,10.1 µM (inactive)
same,GI50,RXF 631,30.1 µM (inactive)
same,GI50,SF-268,39 µM (inactive)
same,GI50,SF-295,6.44 µM (inactive)
same,GI50,SF-539,21.3 µM (inactive)
same,GI50,SK-MEL-28,72.1 µM (inactive)
same,GI50,SK-MEL-5,17 µM (inactive)
same,GI50,SN12C,42.8 µM (inactive)
same,GI50,SNB-19,42.4 µM (inactive)
same,GI50,SNB-78,44.4 µM (inactive)
same,GI50,SW-620,6.85 µM (inactive)
same,GI50,TK-10,31.3 µM (inactive)
same,GI50,U-251,34 µM (inactive)
same,GI50,UACC-257,38.2 µM (inactive)
same,GI50,UACC-62,8.91 µM (inactive)
same,GI50,UO-31,30.6 µM (inactive)
